Laboratory results as given in patent US20050113450A1, “Antibacterial agents” (priority 2002, published 2005).
In brackets after ≈: the same amount, converted by molar mass.

Test system: SA 9218
Assay: MIC by standard agar dilution method
Assay type: cell-based
Conditions: Mueller Hinton agar, 10^4 to 10^5 cells per spot, incubated overnight at 35° C., lowest concentration that inhibits visible growth
Summary of the method: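 Agar dilution: two-fold compound dilutions mixed into molten Mueller Hinton agar, spots of ~10^4–10^5 cells from 0.5 McFarland suspension diluted 1:20 in TSB. Incubated overnight at 35 °C; MIC is lowest concentration inhibiting visible growth.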

SMILES	MIC [µg/mL]	SA 9218 MIC [µg/mL]
CCCCN(CC#N)S(=O)(=O)c1ccc(C(=O)Nc2ccc(C#N)cc2C(=O)O)cc1 [PHA-571203]	32 (≈ 72.6 µM)	–
CC(C)N(Cc1ccccc1)S(=O)(=O)c1ccc(C(=O)Nc2ccc(C#N)cc2C(=O)O)cc1 [PHA-571205]	32 (≈ 67 µM)	–
N#Cc1ccc(NC(=O)c2ccc(S(=O)(=O)Nc3ccc4c(c3)CCC4)cc2)c(C(=O)O)c1 [PHA-571207]	32 (≈ 69.3 µM)	–
N#Cc1ccc(NC(=O)c2cccc(S(=O)(=O)N3CCN(c4ccccc4)CC3)c2)c(C(=O)O)c1 [PHA-571208]	64 (≈ 130 µM)	–
CCCCN(CC)S(=O)(=O)c1ccc(C(=O)Nc2ccc(C#N)cc2C(=O)O)cc1 [PHA-571214]	16 (≈ 37.3 µM)	–
CN(CCc1ccccc1)S(=O)(=O)c1cccc(C(=O)Nc2ccc(C#N)cc2C(=O)O)c1 [PHA-571215]	8 (≈ 17.3 µM)	–
CC(C)N(Cc1ccccc1)S(=O)(=O)c1cccc(C(=O)Nc2ccc(C#N)cc2C(=O)O)c1 [PHA-571216]	32 (≈ 67 µM)	–
N#Cc1ccc(NC(=O)c2cccc(S(=O)(=O)N3CCC(O)CC3)c2)c(C(=O)O)c1 [PHA-571219]	32 (≈ 74.5 µM)	–
N#Cc1ccc(NC(=O)c2cccc(S(=O)(=O)N3CCCCCC3)c2)c(C(=O)O)c1 [PHA-571224]	8 (≈ 18.7 µM)	–
CC(C(O)c1ccccc1)N(C)S(=O)(=O)c1cccc(C(=O)Nc2ccc(C#N)cc2C(=O)O)c1 (stereo not shown) [PHA-571226]	64 (≈ 130 µM)	–
CC(C(O)c1ccccc1)N(C)S(=O)(=O)c1ccc(C(=O)Nc2ccc(C#N)cc2C(=O)O)cc1 (stereo not shown) [PHA-571228]	–	32
N#Cc1ccc(NC(=O)c2cccc(S(=O)(=O)N3CCN(c4ccc(F)cc4)CC3)c2)c(C(=O)O)c1 [PHA-571230]	16 (≈ 31.5 µM)	–
N#Cc1ccc(NC(=O)c2ccc(S(=O)(=O)N3CCC(O)CC3)cc2)c(C(=O)O)c1 [PHA-571231]	> 128	–
CN(CCC#N)S(=O)(=O)c1ccc(C(=O)Nc2ccc(C#N)cc2C(=O)O)cc1 [PHA-571232]	> 128	–
CC1CC(C)CN(S(=O)(=O)c2ccc(C(=O)Nc3ccc(C#N)cc3C(=O)O)cc2)C1 (stereo not shown) [PHA-571234]	8 (≈ 18.1 µM)	–
N#Cc1ccc(NC(=O)c2cccc(S(=O)(=O)N3CCCC4CCCCC43)c2)c(C(=O)O)c1 (stereo not shown) [PHA-571235]	8 (≈ 17.1 µM)	–
CCCCN(CC#N)S(=O)(=O)c1cccc(C(=O)Nc2ccc(C#N)cc2C(=O)O)c1 [PHA-571237]	16 (≈ 36.3 µM)	–
N#CCCN(Cc1ccccc1)S(=O)(=O)c1cccc(C(=O)Nc2ccc(C#N)cc2C(=O)O)c1 [PHA-571238]	128 (≈ 262 µM)	–
N#Cc1ccc(NC(=O)c2ccc(S(=O)(=O)N3CCC3)cc2)c(C(=O)O)c1 [PHA-571239]	128 (≈ 332 µM)	–

SMILES	MIC [µg/mL]	SA 9218 MIC [µg/mL]
CC1CCN(S(=O)(=O)c2ccc(C(=O)Nc3ccc(C#N)cc3C(=O)O)cc2)CC1 [PHA-571240]	16 (≈ 37.4 µM)	–
CC1CCCN(S(=O)(=O)c2ccc(C(=O)Nc3ccc(C#N)cc3C(=O)O)cc2)C1 (stereo not shown) [PHA-571241]	16 (≈ 37.4 µM)	–
CC(C(O)c1ccccc1)N(C)S(=O)(=O)c1ccc(C(=O)Nc2ccc(C#N)cc2C(=O)O)cc1 (stereo not shown) [PHA-571242]	32 (≈ 64.8 µM)	–
CC1CC(C)CN(S(=O)(=O)c2cccc(C(=O)Nc3ccc(C#N)cc3C(=O)O)c2)C1 (stereo not shown) [PHA-571243]	4 (≈ 9.06 µM)	–
N#CCCN(Cc1ccccc1)S(=O)(=O)c1ccc(C(=O)Nc2ccc(C#N)cc2C(=O)O)cc1 [PHA-571246]	32 (≈ 65.5 µM)	–
N#Cc1ccc(NC(=O)c2ccc(S(=O)(=O)N3CCCC4CCCCC43)cc2)c(C(=O)O)c1 (stereo not shown) [PHA-571249]	16 (≈ 34.2 µM)	–
C=CCN(C1CCCC1)S(=O)(=O)c1ccc(C(=O)Nc2ccc(C#N)cc2C(=O)O)cc1 [PHA-571253]	16 (≈ 35.3 µM)	–
N#Cc1ccc(NC(=O)c2ccc(S(=O)(=O)N3CCOCC3)cc2)c(C(=O)O)c1 [PHA-571255]	> 128	–
COCC1CCCN1S(=O)(=O)c1ccc(C(=O)Nc2ccc(C#N)cc2C(=O)O)cc1 (stereo not shown) [PHA-571257]	64 (≈ 144 µM)	–
CC(C(O)c1ccccc1)N(C)S(=O)(=O)c1cccc(C(=O)Nc2ccc(C#N)cc2C(=O)O)c1 (stereo not shown) [PHA-571260]	–	32
N#Cc1ccc(NC(=O)c2cccc(S(=O)(=O)N3CCC(C#N)(c4ccccc4)CC3)c2)c(C(=O)O)c1 [PHA-571262]	32 (≈ 62.2 µM)	–
CCC1CCCCN1S(=O)(=O)c1cccc(C(=O)Nc2ccc(C#N)cc2C(=O)O)c1 (stereo not shown) [PHA-571263]	16 (≈ 36.2 µM)	–
CN(C1CCCCC1)S(=O)(=O)c1ccc(C(=O)Nc2ccc(C#N)cc2C(=O)O)cc1 [PHA-571264]	32 (≈ 72.5 µM)	–
N#Cc1ccc(NC(=O)c2ccc(S(=O)(=O)N3CCc4ccccc4C3)cc2)c(C(=O)O)c1 [PHA-571265]	16 (≈ 34.7 µM)	–
N#Cc1ccc(NC(=O)c2cccc(S(=O)(=O)N3CCN(c4cccc(C(F)(F)F)c4)CC3)c2)c(C(=O)O)c1 [PHA-571267]	32 (≈ 57.3 µM)	–
N#Cc1ccc(NC(=O)c2cccc(S(=O)(=O)N3CCc4ccccc4C3)c2)c(C(=O)O)c1 [PHA-571269]	16 (≈ 34.7 µM)	–
CC1CCCN(S(=O)(=O)c2cccc(C(=O)Nc3ccc(C#N)cc3C(=O)O)c2)C1 (stereo not shown) [PHA-571270]	8 (≈ 18.7 µM)	–
CN(CCC#N)S(=O)(=O)c1cccc(C(=O)Nc2ccc(C#N)cc2C(=O)O)c1 [PHA-571271]	64 (≈ 155 µM)	–
